Tests used:
[1] = system: Ramos cells; assay: Apoptosis assay, AnnexinV-FITC/propidium iodide FCM; format: cell-based, Human; conditions: treatment for 18 hours
Procedure: Figure 1 The chemical structure of SKLB-850 and its anti-tumor effects in vitro (A) The chemical structure of SKLB-850. (B and C) Apoptosis of Ramos cells induced by SKLB-850. Cells were treated by vehicle, R788 or indicated concentrations of compounds. After 18 hours, Cell were harvested and stained with AnnexinV-FITC and propidium iodide, then the apoptosis cells were analyzed by FCM. (D and E) Apoptosis of HBL-1 cells induced by SKLB-850. Cells were treated by vehicle, R788 or indicated concentrations of compounds. After 24 hours, Cell were harvested and stained with AnnexinV-FITC and propidium iodide, then the apoptosis cells were analyzed by FCM. […] Columns, mean; bars, SD. ^##P<0.01, or ^#P<0.05, SKLB-850 group versus vehicle group. […]
The ability of SKLB-850 to induce apoptosis of BCL cells was analyzed by FCM. […]
Flow cytometry (FCM) assays were performed to investigate the apoptosis of Ramos and HBL-1 cells induced by SKLB-850. […] Cell apoptosis was analyzed with a flow cytometer (BD FACSCalibur, BD, USA).

[2] = system: Ramos xenograft; assay: Ramos xenograft mouse model; format: in vivo, NOD/SCID mice
Procedure: The in vivo anti-BCL effects of SKLB-850 were investigated in the Ramos and HBL xenograft mouse models with R788 being taken as a positive control. The animals were treated orally once daily for 21 days (Ramos model) or 36 days (HBL-1 model).
All animal studies were conducted according to the guidelines of the Animal Care and Use Committee of Sichuan University (Permit Number: 20121205, Chengdu, Sichuan, China). Ramos and HBL-1 tumor cells were established by subcutaneously injecting 1×10^7 cells (100μL) into the hind flank region of 7–8 week old female NOD/SCID mice (ICR, NOD/SCID). When tumors reached a volume of ∼200 mm^3, mice were randomly divided into different groups (6 per group), and SKLB-850 (40 mg/kg, 20mg/kg) or vehicle (5% DMSO, 25% PEG400, and 70% waters) were given once daily by oral gavage. Tumor growth and body weight were measured every three days or every day during the treatment. Tumor volumes were calculated using the formula as follow: tumor volume (mm^3) = 0.5× length (mm) × width (mm) ^2. Studies were typically terminated when tumors in vehicle treated animals reached an average size of 2,000 mm^3. Solid tumors were removed and processed for immunohistochemical analysis and terminal deoxynucleotidyl transferase-mediated dUTP nick end labeling (TUNEL) assay.

Row | Compound | percentages of apoptotic cells (in words) [1] | tumor inhibition rate ([2]; 20 mg/kg orally once daily for 21 days) | tumor inhibition rate ([2]; 40 mg/kg orally once daily for 21 days) | anti-tumor effect (in words) ([2]; positive control, orally once daily)
1 | CN1CCN(c2ccc(Nc3ncc(F)c(Nc4ccc(Cl)cc4C(N)=O)n3)cc2)CC1 [SKLB-850, 5-chloro-2-((5-fluoro-2-((4-(4-methylpiperazin-1-yl)phenyl)amino)pyrimidin-4-yl)amino) benzamide] | dose-dependently increased | 73.65% ± 21.22% | 78.82% ± 9.35% | 
2 | COc1cc(Nc2ncc(F)c(Nc3ccc4c(n3)N(COP(=O)(O)O)C(=O)C(C)(C)O4)n2)cc(OC)c1OC [R788, reference compound] | induced apoptosis but obviously much weaker |  |  | some anti-tumor effect
